The NIST ThermoML archive (doi:10.1021/je400250u)

How the values were obtained:
[1] = xn = mol fraction of the nth substance listed; conditions: 100 kPa, Liquid; for viscosity: Capillary tube (Ostwald / Ubbelohde) method; for mass density: Vibrating tube method
[2] = refractive index (Na D-line) (dimensionless); xn = mol fraction of the nth substance listed; conditions: 100 kPa, Liquid, Standard Abbe refractometry

C1CC[C@H]2CCCC[C@H]2C1 [cis-decahydronaphthalene] + CCCCCCCCCC
Conditions | mass density, [1] [kg/m3] | refractive index, [2] | viscosity, [1] [mPa·s]
293.15 K, x1 = 0.1006 | 744.89 | – | 1.006
293.15 K, x1 = 0.2055 | 759.79 | – | 1.09
293.15 K, x1 = 0.3009 | 773.95 | – | 1.197
293.15 K, x1 = 0.3965 | 788.64 | – | 1.366
293.15 K, x1 = 0.508 | 806.55 | – | 1.481
293.15 K, x1 = 0.6026 | 822.35 | – | 1.669
293.15 K, x1 = 0.7012 | 839.6 | – | 1.954
293.15 K, x1 = 0.7763 | 853.24 | – | 2.163
293.15 K, x1 = 0.8985 | 876.48 | – | 2.647
293.15 K, x1 = 1 | 896.85 | – | 3.355
298.15 K, x1 = 0.1006 | 741.18 | 1.415 | 0.933
298.15 K, x1 = 0.2055 | 756.08 | 1.421 | 1.015
298.15 K, x1 = 0.3009 | 770.21 | 1.427 | 1.107
298.15 K, x1 = 0.3965 | 784.9 | 1.4326 | 1.26
298.15 K, x1 = 0.508 | 802.83 | 1.4403 | 1.361
298.15 K, x1 = 0.6026 | 818.62 | 1.4464 | 1.53
298.15 K, x1 = 0.7012 | 835.86 | 1.4539 | 1.781
298.15 K, x1 = 0.7763 | 849.49 | 1.4594 | 1.964
298.15 K, x1 = 0.8985 | 872.71 | 1.4688 | 2.39
298.15 K, x1 = 1 | 893.06 | 1.4776 | 3.011
303.15 K, x1 = 0.1006 | 737.4 | – | 0.868
303.15 K, x1 = 0.2055 | 752.31 | – | 0.939
303.15 K, x1 = 0.3009 | 766.45 | – | 1.022
303.15 K, x1 = 0.3965 | 781.15 | – | 1.162
303.15 K, x1 = 0.508 | 799.07 | – | 1.255
303.15 K, x1 = 0.6026 | 814.86 | – | 1.406
303.15 K, x1 = 0.7012 | 832.1 | – | 1.633
303.15 K, x1 = 0.7763 | 845.72 | – | 1.792
303.15 K, x1 = 0.8985 | 868.93 | – | 2.168
303.15 K, x1 = 1 | 889.26 | – | 2.718
308.15 K, x1 = 0.1006 | 733.61 | 1.4109 | 0.812
308.15 K, x1 = 0.2055 | 748.53 | 1.4167 | 0.876
308.15 K, x1 = 0.3009 | 762.68 | 1.4227 | 0.95
308.15 K, x1 = 0.3965 | 777.38 | 1.4284 | 1.076
308.15 K, x1 = 0.508 | 795.31 | 1.4358 | 1.162
308.15 K, x1 = 0.6026 | 811.1 | 1.4422 | 1.298
308.15 K, x1 = 0.7012 | 828.33 | 1.4496 | 1.503
308.15 K, x1 = 0.7763 | 841.96 | 1.455 | 1.644
308.15 K, x1 = 0.8985 | 865.15 | 1.4647 | 1.979
308.15 K, x1 = 1 | 885.46 | 1.4736 | 2.47
313.15 K, x1 = 0.1006 | 729.8 | – | 0.76
313.15 K, x1 = 0.2055 | 744.74 | – | 0.82
313.15 K, x1 = 0.3009 | 758.9 | – | 0.887
313.15 K, x1 = 0.3965 | 773.6 | – | 0.996
313.15 K, x1 = 0.508 | 791.54 | – | 1.079
313.15 K, x1 = 0.6026 | 807.33 | – | 1.204
313.15 K, x1 = 0.7012 | 824.56 | – | 1.389
313.15 K, x1 = 0.7763 | 838.18 | – | 1.517
313.15 K, x1 = 0.8985 | 861.37 | – | 1.811
313.15 K, x1 = 1 | 881.65 | – | 2.252
318.15 K, x1 = 0.1006 | 725.99 | 1.4065 | 0.715
318.15 K, x1 = 0.2055 | 740.94 | 1.4127 | 0.771
318.15 K, x1 = 0.3009 | 755.1 | 1.4188 | 0.832
318.15 K, x1 = 0.3965 | 769.81 | 1.4251 | 0.924
318.15 K, x1 = 0.508 | 787.76 | 1.4319 | 1.007
318.15 K, x1 = 0.6026 | 803.55 | 1.4384 | 1.12
318.15 K, x1 = 0.7012 | 820.78 | 1.4456 | 1.286
318.15 K, x1 = 0.7763 | 834.4 | 1.4515 | 1.401
318.15 K, x1 = 0.8985 | 857.58 | 1.4611 | 1.666
318.15 K, x1 = 1 | 877.85 | 1.4696 | 2.063
323.15 K, x1 = 0.1006 | 722.16 | – | 0.674
323.15 K, x1 = 0.2055 | 737.12 | – | 0.725
323.15 K, x1 = 0.3009 | 751.29 | – | 0.781
323.15 K, x1 = 0.3965 | 766.01 | – | 0.859
323.15 K, x1 = 0.508 | 783.96 | – | 0.941
323.15 K, x1 = 0.6026 | 799.76 | – | 1.045
323.15 K, x1 = 0.7012 | 816.99 | – | 1.193
323.15 K, x1 = 0.7763 | 830.61 | – | 1.299
323.15 K, x1 = 0.8985 | 853.78 | – | 1.539
323.15 K, x1 = 1 | 874.05 | – | 1.898
